From patent publication US20240299356A1, “DEVELOPMENT OF PRMT-TARGETING THERAPY TO ENHANCE EGFR-TARGETING DRUG EFFICACY IN NSCLC” (The Regents of the University of California, priority 2021, published 2024)

Key:
Assay type in all cases: cell-based
PC9 [1] = assay: Drug tolerance assay: surviving fraction of PC9 cells under continuous erlotinib
Excerpt: (§1) FIGS. 1A-1F present exemplary data showing that Type I PRMT inhibition reduced IFNγ signaling-modulated drug tolerance. FIG. 1A present a three-step approach aimed at investigating drug tolerance. FIG. 1B is a line graph showing PC9 cell viabilities under six-day treatment of various doses of erlotinib in the context of IFNγ. […] FIG. 1E is a line graph showing that inhibition of type I PRMTs by MS023 reduced cancer drug tolerance specifically in the IFNγ/STAT1 activation context (normalized to DMSO controls in corresponding IFNγ contexts). Tolerance model for FIG. 1E: PC9 treated with 2.5 μM erlotinib for six days. […] Tolerance model: PC9 treated with 2.5 μM erlotinib.
FIGS. 4A-4F present exemplary data showing that Type I PRMT inhibition reduces IFNγ signaling-modulated drug tolerance. FIG. 4A is a line graph showing the pro-survival effects of IFNγ in a variety of cell types with the cytotoxic inducers. Six-day tolerance assay in lung cancer cells was performed under 2.5 μM erlotinib or 50 μM carboplatin. FIG. 4B is a line graph showing PC9 cells co-treated with IFNγ and cytotoxic stressors (EGFR inhibitor Gefitinib, PARP inhibitor olaparib, death ligand TRAIL, procaspase-3 activator PAC-1), and cell viabilities were measured by Cell TiterGlo after six days. FIG. 4C is a bar-graph showing PRMT1 knockdown efficiency measured by qPCR after two days of siRNA transfection. FIG. 4D is a line graph showing that inhibition of type I PRMTs by MS023 reduced cancer drug tolerance specifically in the IFNγ/STAT1 activation context (normalized to DMSO control in (−) IFNγ context). Tolerance model for FIG. 4D: PC9 treated with 2.5 μM erlotinib for six days. FIG. 4E is a line graph showing that inhibition of type I PRMTs by GSK3368715 reduced cancer drug tolerance specifically in the IFNγ/STAT1 activation context (normalized to DMSO controls in corresponding IFNγ contexts). FIG. 4F is a line graph line graphs showing that inhibition of type I PRMTs by GSK3368715 reduced cancer drug tolerance specifically in the IFNγ/STAT1 activation context (normalized to DMSO control in (−) IFNγ context). Tolerance model for FIGS. 4E and 4F: PC9 treated with 2.5 μM erlotinib for six days.
To investigate drug tolerance, we undertook a three-step approach (FIG. 1A). First, we established reproducible assays to monitor small subpopulations of cancer cells that survive sustained SOC drug treatment. We initially selected the well-established drug-tolerance model provided by the EGFR-mutant lung cancer cell line PC9 and EGFR inhibitor erlotinib^1,2,6. The effect of perturbations to drug tolerance was assessed by quantifying changes to the fraction of the small subpopulation of surviving (drug-tolerant) cells after approximately one week of continuous drug treatment.

PC9 [2] = assay: Emergence of drug-tolerant persisters, two-month co-treatment with erlotinib; conditions: IFNγ stimulation, PC9, 2.5 μM erlotinib (FIG. 1F)
Excerpt: as §1
Third, we searched for perturbations that reduce IFNγ-stimulated drug tolerance within a collection of compounds of known biological functions and targets. […] Thus, type I PRMT inhibition is a vulnerability of IFNγ signaling-stimulated drug tolerance.

[3] = system: PC9 STAT1 knockdown / homozygous knockout cells; assay: Drug tolerance assay in PC9 with STAT1 knockdown or knockout; conditions: PC9 treated with 2.5 μM erlotinib
Description: (§2) FIG. 2A is a line graph showing that knockout of STAT1 by CRISPR blocked IFNγ-induced change of drug-tolerant subpopulation size. […] FIG. 2D is a line graph showing homozygous knockout of STAT1 by CRISPR (tolerance model: PC9 treated with 2.5 μM erlotinib). […] Relative intensities were measured from by mass spectrometry experiments. FIG. 2H is a diagram of STAT1-mediated drug tolerance and type I PRMT vulnerability to eliminate drug tolerance.
(§3) FIG. 5C is a line graph showing that STAT1 modulated cancer drug tolerance, and knockdown of STAT1 by siRNA blocked IFNγ-induced change of drug-tolerant subpopulation size. […] FIG. 5E is a bar graph showing that cancer drug treatment (EGFR drugs and other cytotoxic stressors) enhanced STAT1 expression across multiple cell lines. […] Tolerance model for FIG. 5G: PC9 treated with 2.5 μM erlotinib. FIG. 5H presents exemplary data showing differential gene expression in erlotinib-tolerant PC9 cells comparing to parental cells. The top panel of FIG. 5H is a volcano plot in which IRDS genes are shown in black. The bottom panel of FIG. 5H is a line graph showing the accumulative distribution of adjusted p-values of IRDS genes (gray) versus all genes excluding IRDS genes (black). FIG. 5I is a line graph showing the knockdown of STAT1 by siRNA. […] Relative intensities were measured from by mass spectrometry experiments. […]

STAT1 = STAT1 protein expression (Western blot)
Description: as §2
FIG. 5C is a line graph showing that STAT1 modulated cancer drug tolerance, and knockdown of STAT1 by siRNA blocked IFNγ-induced change of drug-tolerant subpopulation size. […] FIG. 5E is a bar graph showing that cancer drug treatment (EGFR drugs and other cytotoxic stressors) enhanced STAT1 expression across multiple cell lines. […] Tolerance model for FIG. 5G: PC9 treated with 2.5 μM erlotinib. FIG. 5H presents exemplary data showing differential gene expression in erlotinib-tolerant PC9 cells comparing to parental cells. The top panel of FIG. 5H is a volcano plot in which IRDS genes are shown in black. The bottom panel of FIG. 5H is a line graph showing the accumulative distribution of adjusted p-values of IRDS genes (gray) versus all genes excluding IRDS genes (black). FIG. 5I is a line graph showing the knockdown of STAT1 by siRNA. FIG. 5J is a line graph showing the homozygous knockout of STAT1 by CRISPR. Tolerance model for FIGS. 5I and 5J: PC9 treated with 2.5 μM erlotinib. […] PC9 cells were pretreated with MS023 for one day, followed by co-treatment of erlotinib, and perturbations of protein synthesis or degradation for 16 hours. Cycloheximide (CHX): protein synthesis inhibitor. Bortezomib (Bort): proteasome inhibitor. Ammonium chloride (NH4Cl)): lysosomal function inhibitor. […] FIG. 5P is a bar graph showing type I PRMTs methylate PABP2 at multiple arginine residues. Relative intensities were measured from by mass spectrometry experiments.
What is the connection between type I PRMTs and IFNγ signaling-modulated drug tolerance? […] Previous work in other systems identified STAT1 or its regulator PIAS1 as direct substrates of type I PRMTs^27, though we could not find evidence for their arginine methylation in our system (data not shown).

STAT1 mRNA = STAT1 mRNA level; conditions: FIG. 5M
Description: FIG. 5C is a line graph showing that STAT1 modulated cancer drug tolerance, and knockdown of STAT1 by siRNA blocked IFNγ-induced change of drug-tolerant subpopulation size. […] FIG. 5E is a bar graph showing that cancer drug treatment (EGFR drugs and other cytotoxic stressors) enhanced STAT1 expression across multiple cell lines. […] Tolerance model for FIG. 5G: PC9 treated with 2.5 μM erlotinib. FIG. 5H presents exemplary data showing differential gene expression in erlotinib-tolerant PC9 cells comparing to parental cells. The top panel of FIG. 5H is a volcano plot in which IRDS genes are shown in black. The bottom panel of FIG. 5H is a line graph showing the accumulative distribution of adjusted p-values of IRDS genes (gray) versus all genes excluding IRDS genes (black). FIG. 5I is a line graph showing the knockdown of STAT1 by siRNA. FIG. 5J is a line graph showing the homozygous knockout of STAT1 by CRISPR. Tolerance model for FIGS. 5I and 5J: PC9 treated with 2.5 μM erlotinib. […] PC9 cells were pretreated with MS023 for one day, followed by co-treatment of erlotinib, and perturbations of protein synthesis or degradation for 16 hours. Cycloheximide (CHX): protein synthesis inhibitor. Bortezomib (Bort): proteasome inhibitor. Ammonium chloride (NH4Cl)): lysosomal function inhibitor. […] Relative intensities were measured from by mass spectrometry experiments. […]

PABP2 = PABP2 arginine methylation by mass spectrometry; conditions: mass spectrometry (FIGS. 2G, 5P, 5Q)
Description: as §2, §3

lung cancer cell lines = assay: Drug tolerance in lung cancer cell models
Description: FIGS. 3A-3D present exemplary data showing that Type I PRMT inhibition enhanced cancer drug efficacy. […] FIGS. 3B-3D present data showing the correlation between endogenous STAT1 expression levels and the efficacy of type I PRMT inhibition. […] Gray dots indicate cell lines that were tested for the efficacies of type I PRMT inhibition (by MS023).
(§4) Can type I PRMT inhibition provide a general strategy for reducing drug tolerance and enhance efficacies of SOC drugs? STAT1 signaling can be activated by various sources in tumors, including interferon (IFN)-producing immune cells in the tumor microenvironment, endogenous nucleic acids, and cancer therapeutics (FIG. 2H)^31. […] We also observed efficacy of MS023 with gemcitabine in various pancreatic cancer cell lines (FIG. 6A).

[4] = system: pancreatic cancer cell lines; assay: Drug tolerance in gemcitabine-treated pancreatic cancer cell lines; conditions: FIG. 6A
Excerpt: FIGS. 6A-6E present exemplary data showing that Type I PRMT inhibition enhances cancer drug efficacy.
as §4

PD-L1 [5] = assay: PD-L1 expression in MGH119; conditions: lung cancer cell MGH119 (FIG. 12A)
PD-L1 [6] = assay: PD-L1 expression in MIAPACA2; conditions: pancreatic cancer cell MIAPACA2 (FIG. 12B)
[7] = system: solid tumors with wild type splicing factors (e.g. SRSF2, SF3B1, U2AF1); assay: Proliferation of solid tumors with wild type splicing factors; conditions: FIG. 9
[8] = system: AKT, ERK and STAT3 pathway; assay: EGFR bypass signaling (AKT, ERK and STAT3 pathway); conditions: FIG. 5A

CC(C)Oc1ccc(-c2c[nH]cc2CN(C)CCN)cc1 [MS023]
effect on reducing drug tolerance, dependence on IFNγ (PC9 [1]; PC9 treated with 2.5 μM erlotinib for six days, with or without IFNγ (FIGS. 1E, 4D-4F)): only observed in the presence of IFNγ stimulation
drug tolerance in the PC9/erlotinib model system (PC9 [1]; across a wide range of IFNγ concentrations (FIG. 1C)): reduced drug tolerance
expansion of drug-tolerant cells (persisters) (PC9 [2]): durably reduced the expansion of drug-tolerant cells
efficacy on drug tolerance in STAT1 homozygous knockout cells ([3]; CRISPR STAT1 knockout (FIGS. 2D, 5J)): no efficacy
efficacy on drug tolerance after STAT1 knockdown ([3]; STAT1 siRNA (FIG. 5I)): dramatically compromised
mechanism of the reduction of STAT1 expression (STAT1; PC9 pretreated one day, then erlotinib plus cycloheximide, bortezomib or NH4Cl for 16 hours (FIG. 5N)): alteration in protein synthesis
total STAT1 protein level (STAT1; independent of IFNγ or erlotinib, multiple cancer cell lines (FIGS. 2E, 5K, 5L)): downregulated total STAT1 protein level
STAT1 mRNA (STAT1 mRNA): did not reduce STAT1 mRNA
dimethylation of PABP2 arginine residues (PABP2): reduced the detected dimethylation of PABP2
drug tolerance in osimertinib-treated lung cancers (lung cancer cell lines; EGFR mutant cell lines with T790M resistance mutation, IFNγ stimulation (FIG. 3A middle)): reduced drug tolerance
drug tolerance in carboplatin-treated lung cancers (lung cancer cell lines; EGFR wild type cell lines, IFNγ stimulation (FIG. 3A bottom)): reduced drug tolerance
IC50 on reducing drug tolerance (lung cancer cell lines; lung (erlotinib, osimertinib, carboplatin) and pancreatic (gemcitabine) cancer cell models, IFNγ stimulation): sub- to low-micromolar range
drug tolerance in erlotinib-treated lung cancers (lung cancer cell lines; multiple EGFR mutant cell lines, IFNγ stimulation (FIG. 3A top)): reduced drug tolerance
drug tolerance in gemcitabine-treated pancreatic cancers [4]: reduced drug tolerance
expression of immune checkpoint protein PD-L1 (PD-L1 [5]): reduced the expression
expression of immune checkpoint protein PD-L1 (PD-L1 [6]): reduced the expression
proliferation [7]: reduced the proliferation

C#Cc1cccc(Nc2ncnc3cc(OCCOC)c(OCCOC)cc23)c1 [erlotinib]
total STAT1 as opposed to P-STAT1 (STAT1; combined with IFNγ, PC9 cells (FIG. 5D)): synergizes with IFNγ to increase total STAT1

B1: IFNγ: dimerized soluble cytokine, the only member of the type II class of interferons (protein, UniProt P01579 24-161, looked up)
Interferon gamma: QDPYVKEAENLKKYFNAGHSDVADNGTLFLGILKNWKEESDRKIMQSQIVSFYFKLFKNFKDDQSIQKSVETIKEDMNVKFFNSNKKKRDDFEKLTNYSVTDLNVQRKAIHELIQVMAELSPAAKTGKRKRSQMLFRG
drug tolerance at relatively low doses (PC9 [1]; PC9/erlotinib and other models of tolerance (FIGS. 1B, 4A, 4B)): increase tolerance
drug tolerance at relatively high doses (PC9 [1]; PC9/erlotinib, six-day treatment (FIG. 1B)): decreases drug tolerance
STAT1 signaling (phosphorylation of STAT1, IRF1 transcription, STAT1 upregulation) (STAT1; PC9-erlotinib model system (FIG. 5B)): activates STAT1 signaling
reactivation of major EGFR bypass signaling [8]: did not observe the reactivation
